The values that follow come from patent US20250221998A1, “DISCOVERY OF COVALENT EGFR INHIBITOR THROUGH CYSTEINE 775” (Dana-Farber Cancer Institute, Inc., priority 2022, published 2025).

The target in test [1] is EGFR L858R/C797S Ba/F3 cells (Homo sapiens, UniProt P00533, C797S/L858R, cells depend on it). As to the kind of experiment: Ba/F3 cell proliferation (Cell Titer Glo), EGFR L858R/C797S. The following applies: 72 hours exposure, read-out: L858R/C797S (μM), inhibitory activity against EGFR mutants. The format is cell-based, murine. The text has this:
(§1) The EGFR mutant L858R Ba/F3 cells have been previously described (Zhou, W., et al. Nature 462, 2009, 1070-1074). The EGFR C797S and C775S mutations were introduced via site directed mutagenesis using the Quick Change Site-Directed Mutagenesis kit into a vector containing EGFR L858R mutation (Stratagene; La Jolla, CA) according to the manufacturer's instructions. All constructs were confirmed by DNA sequencing. The constructs were then shuttled into the retroviral vector JP1540 by either using the Cre-recombination system (Agilent Technologies, Santa Clara, CA) or the In-fusion HD Cloning kit (Takara Bio USA, Inc.; Mountain view, CA). Ba/F3 cells were then infected with retrovirus per standard protocols, as described previously (Zhou, et al, Nature 2009). Stable clones were obtained by selection in puromycin (2 ug/ml). All BaF/3 mutant cells were maintained in RPMI 1640 (Cellgro; Mediatech Inc., Herndon, CA) supplemented with 10% FBS, 100 units/mL penicillin, 100 units/mL streptomycin.
(§2) Growth and inhibition of growth was assessed by the Cell Titer Glo assay (Promega, Madison, WI) and was performed according to the manufacturer's instructions. The Cell Titer Glo assay is a luminescence-based method used to determine the number of viable cells based on quantitation of the ATP present, which is directly proportional to the amount of metabolically active cells present. Ba/F3 cells of different EGFR genotypes were exposed to compounds for 72 hours and the number of cells used per experiment was determined empirically as has been previously established (Zhou, et al., Nature 2009). All experimental points were set up in triplicates in 384-well plates. […] The curves were fitted using a non-linear regression model with a sigmoidal dose response.
(§3) For inhibitory activity against EGFR mutants, the following designations are used: ≤0·25 μM=A, 0·25 μM˜0.5 μM=B, 0.5 μM˜2.5 μM=C, ≥2.5 μM=D.
Background: ATP-based viability assays read luminescence as a measure of living cells.

The target in test [2] is EGFR mutant L858R Ba/F3 cells (Homo sapiens, UniProt P00533, L858R, cells depend on it). Briefly: Ba/F3 cell proliferation (Cell Titer Glo), EGFR L858R. It is filed as cell-based, murine. As to conditions: 72 hours exposure, read-out: L858R BaF3 (μM), inhibitory activity against EGFR mutants.
Sequence of EGFR mutant L858R Ba/F3 cells (P00533 whole entry L858R): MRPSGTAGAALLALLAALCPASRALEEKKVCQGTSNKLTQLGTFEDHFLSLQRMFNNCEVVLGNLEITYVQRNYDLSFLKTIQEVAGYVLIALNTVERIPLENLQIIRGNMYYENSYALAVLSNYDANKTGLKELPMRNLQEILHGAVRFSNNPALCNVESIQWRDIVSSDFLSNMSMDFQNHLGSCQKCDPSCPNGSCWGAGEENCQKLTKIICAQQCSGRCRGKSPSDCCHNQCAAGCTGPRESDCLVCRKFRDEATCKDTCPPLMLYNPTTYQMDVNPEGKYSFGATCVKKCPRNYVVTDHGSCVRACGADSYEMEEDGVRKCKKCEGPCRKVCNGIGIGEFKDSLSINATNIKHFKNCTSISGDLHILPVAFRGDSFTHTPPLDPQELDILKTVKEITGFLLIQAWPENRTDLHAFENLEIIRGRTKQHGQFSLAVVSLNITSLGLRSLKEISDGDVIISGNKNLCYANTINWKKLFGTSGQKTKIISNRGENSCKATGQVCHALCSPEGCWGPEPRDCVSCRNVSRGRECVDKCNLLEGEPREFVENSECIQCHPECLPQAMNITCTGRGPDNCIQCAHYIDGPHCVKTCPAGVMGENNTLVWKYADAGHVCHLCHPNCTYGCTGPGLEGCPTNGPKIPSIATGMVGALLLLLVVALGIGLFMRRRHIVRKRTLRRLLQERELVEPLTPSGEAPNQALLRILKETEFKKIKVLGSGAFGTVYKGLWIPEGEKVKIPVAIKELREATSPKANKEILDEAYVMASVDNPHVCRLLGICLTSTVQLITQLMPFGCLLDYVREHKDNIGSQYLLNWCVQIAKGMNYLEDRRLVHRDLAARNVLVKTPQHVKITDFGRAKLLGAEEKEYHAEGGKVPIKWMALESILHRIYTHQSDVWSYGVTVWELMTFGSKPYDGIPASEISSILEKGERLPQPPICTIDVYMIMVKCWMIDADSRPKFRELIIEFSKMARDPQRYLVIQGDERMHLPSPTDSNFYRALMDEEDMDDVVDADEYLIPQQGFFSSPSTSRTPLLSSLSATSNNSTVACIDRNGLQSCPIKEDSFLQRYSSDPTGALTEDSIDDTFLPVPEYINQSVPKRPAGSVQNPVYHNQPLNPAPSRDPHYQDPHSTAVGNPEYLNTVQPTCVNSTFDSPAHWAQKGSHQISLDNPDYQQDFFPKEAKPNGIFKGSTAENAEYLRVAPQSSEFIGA
Text: as §1, §2, §3

Some results are limits rather than exact numbers.

Sequence of EGFR L858R/C797S Ba/F3 cells (P00533 whole entry C797S/L858R): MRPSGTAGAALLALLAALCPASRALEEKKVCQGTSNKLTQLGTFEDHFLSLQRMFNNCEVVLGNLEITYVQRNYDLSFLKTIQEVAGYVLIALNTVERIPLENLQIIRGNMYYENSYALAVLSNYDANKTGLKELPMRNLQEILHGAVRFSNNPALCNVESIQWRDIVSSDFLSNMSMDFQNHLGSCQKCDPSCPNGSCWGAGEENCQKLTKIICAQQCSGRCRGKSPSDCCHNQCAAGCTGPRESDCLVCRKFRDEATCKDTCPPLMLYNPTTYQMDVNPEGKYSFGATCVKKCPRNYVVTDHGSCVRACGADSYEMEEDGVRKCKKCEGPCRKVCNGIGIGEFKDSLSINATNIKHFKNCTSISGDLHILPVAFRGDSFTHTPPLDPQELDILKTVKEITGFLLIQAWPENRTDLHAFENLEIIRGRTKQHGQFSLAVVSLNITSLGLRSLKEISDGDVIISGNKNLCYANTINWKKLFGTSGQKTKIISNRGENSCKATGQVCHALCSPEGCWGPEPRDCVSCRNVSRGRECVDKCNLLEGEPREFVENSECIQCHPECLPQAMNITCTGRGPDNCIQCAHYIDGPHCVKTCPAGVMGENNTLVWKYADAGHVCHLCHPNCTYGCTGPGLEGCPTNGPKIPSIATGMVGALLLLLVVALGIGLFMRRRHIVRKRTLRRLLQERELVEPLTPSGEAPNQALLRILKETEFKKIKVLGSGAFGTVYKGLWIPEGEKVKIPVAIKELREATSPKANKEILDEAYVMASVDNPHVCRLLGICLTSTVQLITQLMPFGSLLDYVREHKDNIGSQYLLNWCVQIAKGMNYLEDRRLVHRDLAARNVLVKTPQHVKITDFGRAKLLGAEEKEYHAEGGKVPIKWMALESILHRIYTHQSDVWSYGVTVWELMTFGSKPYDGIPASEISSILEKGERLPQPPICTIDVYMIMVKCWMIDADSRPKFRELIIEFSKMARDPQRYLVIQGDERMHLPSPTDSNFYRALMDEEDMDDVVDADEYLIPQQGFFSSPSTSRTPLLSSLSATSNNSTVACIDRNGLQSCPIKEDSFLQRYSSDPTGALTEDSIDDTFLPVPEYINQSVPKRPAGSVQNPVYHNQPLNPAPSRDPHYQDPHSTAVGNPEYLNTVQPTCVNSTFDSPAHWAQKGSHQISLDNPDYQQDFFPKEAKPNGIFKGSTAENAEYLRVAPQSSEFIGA

As for `C=CC(=O)N1CCN(c2cc3cnc(NC4CC4)nc3n(C)c2=O)c2cccc(C)c21` [Compound 083, 2-(cyclopropylamino)-8-methyl-6-(5-methyl-4-prop-2-enoyl-2,3-dihydroquinoxalin-1-yl)pyrido[2,3-d]pyrimidin-7-one], the GI50 in test [1] and in test [2] was 0.5 to 2.5 µM in each case.
Turning to `C=CC(=O)N1CCN(c2cc3cnc(Nc4ccc(OCCN(C)C)cc4)nc3n(C3CC(O)C3)c2=O)c2cccc(OC)c21` (stereo not shown) [Compound 077], the GI50 in test [1] and in test [2] was at most 0.25 µM each time.
On to `C=CC(=O)N1CCN(c2cc3cnc(Nc4ccc(N5CCN(C)CC5)cc4)nc3n(C)c2=O)c2cccc(O)c21` [Compound 051, 6-(5-hydroxy-4-prop-2-enoyl-2,3-dihydroquinoxalin-1-yl)-8-methyl-2-[4-(4-methylpiperazin-1-yl)anilino]pyrido[2,3-d]pyrimidin-7-one], for which the GI50 in test [1] and in test [2] was at most 0.25 µM throughout.
Regarding `C=CC(=O)N1CCN(c2cc3cnc(Nc4ccc(N5CCN(C)CC5)cn4)nc3n(C)c2=O)c2cccc(C)c21` [Compound 030], the GI50 in test [1] and in test [2] was at most 0.25 µM each time.
Regarding `C=CC(=O)N1CCN(c2cc3cnc(NC)nc3n(-c3ccc(OCCN(C)C)cc3)c2=O)c2cccc(C)c21` [Compound 081, 8-[4-[2-(dimethylamino)ethoxy]phenyl]-2-(methylamino)-6-(5-methyl-4-prop-2-enoyl-2,3-dihydroquinoxalin-1-yl)pyrido[2,3-d]pyrimidin-7-one], the GI50 in test [1] and in test [2] was at most 0.25 µM in each case.
Regarding `C=CC(=O)N1CCN(c2cc3cnc(Nc4ccc(OCCN(C)C)cc4)nc3n(CC(C)(C)O)c2=O)c2cccc(C)c21` [Compound 058, 2-[4-[2-(dimethylamino)ethoxy]anilino]-8-(2-hydroxy-2-methyl-propyl)-6-(5-methyl-4-prop-2-enoyl-2,3-dihydroquinoxalin-1-yl)pyrido[2,3-d]pyrimidin-7-one], the GI50 in test [1] and in test [2] was at most 0.25 µM throughout.
Consider `C=CC(=O)N1CCN(c2cc3cnc(Nc4ccc(OC5CN(C)C5)cc4)nc3n(C)c2=O)c2cccc(C)c21` [Compound 076], for which the GI50 in test [1] and in test [2] was at most 0.25 µM each time.
Turning to `C=CC(=O)N1CCN(c2cc3cnc(N)nc3n(-c3ccc(OCCN(C)C)nc3)c2=O)c2cccc(C)c21` [Compound 079], the GI50 is 0.5 to 2.5 µM in test [1] and at most 0.25 µM in test [2].
In the same order, the values of `C=CC(=O)N1CCN(c2cc3cnc(Nc4ccc(OCCN5CCCC5)cc4)nc3n(C)c2=O)c2cccc(C)c21` [Compound 032] are at most 0.25 µM and at most 0.25 µM.
Turning to `C=CC(=O)NC1CCCN(c2cc3cnc(Nc4cnn(CCO)c4)nc3n(C)c2=O)C1` (stereo not shown) [Compound 015, N-[1-[2-[[1-(2-hydroxyethyl)pyrazol-4-yl]amino]-8-methyl-7-oxo-pyrido[2,3-d]pyrimidin-6-yl]-3-piperidyl]prop-2-enamide], the GI50 in test [1] and in test [2] was at least 2.5 µM each time.
As for `C=C(F)C(=O)NC1CCN(c2cc3cnc(Nc4cnn(CCO)c4)nc3n(C)c2=O)CC1` [Compound 018], the GI50 in test [1] and in test [2] was at least 2.5 µM in each case.
`C=CC(=O)N1CCN(c2cc3cnc(NC4CC4)nc3n(C3CCOCC3)c2=O)c2cccc(C)c21` [Compound 097, 2-(cyclopropylamino)-6-(5-methyl-4-prop-2-enoyl-2,3-dihydroquinoxalin-1-yl)-8-tetrahydropyran-4-yl-pyrido[2,3-d]pyrimidin-7-one]: the GI50 in test [1] and in test [2] was at most 0.25 µM throughout.
As for `C=CC(=O)N1CCN(c2cc3cnc(Nc4ccc(N5CCN(C)CC5)cc4)nc3n(C)c2=O)C(c2ccccc2)C1` (stereo not shown) [Compound 011, 8-methyl-2-[4-(4-methylpiperazin-1-yl)anilino]-6-(2-phenyl-4-prop-2-enoyl-piperazin-1-yl)pyrido[2,3-d]pyrimidin-7-one], the GI50 in test [1] and in test [2] was at least 2.5 µM each time.
Turning to `C=CC(=O)N1CCN(c2cc3cnc(Nc4ccc(OC5CN(S(C)(=O)=O)C5)cc4)nc3n(C)c2=O)c2cccc(C)c21` [Compound 049], the GI50 in test [1] and in test [2] was at most 0.25 µM each time.
Regarding `C=CC(=O)N1CCN(c2cc3cnc(Nc4ccc(CS(=O)(=O)NC)cc4)nc3n(C)c2=O)c2cccc(O)c21` [Compound 053], the GI50 in test [1] was 0.25 to 0.5 µM; in test [2] it was at most 0.25 µM.
In the same order, the values of `C=CC(=O)N1CCN(c2cc3cnc(Nc4ccccc4)nc3n([C@H]3C[C@@H](O)C3)c2=O)c2cccc(C)c21` [Compound 069] are at most 0.25 µM and at most 0.25 µM.
For `C=CC(=O)N1CCN(c2cc3cnc(Nc4cnn(CCN(C)C)c4)nc3n(C)c2=O)c2cccc(C)c21` [Compound 037, 2-[[1-[2-(dimethylamino)ethyl]pyrazol-4-yl]amino]-8-methyl-6-(5-methyl-4-prop-2-enoyl-2,3-dihydroquinoxalin-1-yl)pyrido[2,3-d]pyrimidin-7-one], in that order: at most 0.25 µM and at most 0.25 µM.
For `C=CC(=O)N1CCN(c2cc3cnc(Nc4cc5c(cc4F)CCN(C)C5)nc3n(C)c2=O)c2cccc(C)c21` [Compound 061, 2-[(6-fluoro-2-methyl-3,4-dihydro-1H-isoquinolin-7-yl)amino]-8-methyl-6-(5-methyl-4-prop-2-enoyl-2,3-dihydroquinoxalin-1-yl)pyrido[2,3-d]pyrimidin-7-one], the GI50 in test [1] and in test [2] was at most 0.25 µM throughout.
For the compound `C=CC(=O)N1CCN(c2cc3cnc(Nc4ccc(N5CCN(C)CC5)cc4)nc3n(C)c2=O)C2CC21` (stereo not shown) [Compound 024, 8-methyl-2-[4-(4-methylpiperazin-1-yl)anilino]-6-(5-prop-2-enoyl-2,5-diazabicyclo[4.1.0]heptan-2-yl)pyrido[2,3-d]pyrimidin-7-one], the GI50 in test [1] and in test [2] was at least 2.5 µM in each case.
With `C=CC(=O)N1CCN(c2cc3cnc(Nc4ccc(OCCN(C)C)cc4)nc3n(C)c2=O)c2cccc(O)c21` [Compound 066, 2-[4-[2-(dimethylamino)ethoxy]anilino]-6-(5-hydroxy-4-prop-2-enoyl-2,3-dihydroquinoxalin-1-yl)-8-methyl-pyrido[2,3-d]pyrimidin-7-one], the GI50 in test [1] and in test [2] was at most 0.25 µM throughout.
Regarding `C=CC(=O)N1CCN(c2cc3cnc(Nc4cc5n(c4)CCN(C)C5=O)nc3n(C)c2=O)c2cccc(C)c21` [Compound 073, 8-methyl-2-[(2-methyl-1-oxo-3,4-dihydropyrrolo[1,2-a]pyrazin-7-yl)amino]-6-(5-methyl-4-prop-2-enoyl-2,3-dihydroquinoxalin-1-yl)pyrido[2,3-d]pyrimidin-7-one], the GI50 in test [1] and in test [2] was at most 0.25 µM throughout.
`C=CC(=O)N1CCN(c2cc3cnc(Nc4ccc(OCCN(C)C)cc4)nc3n([C@H]3C[C@@](C)(O)C3)c2=O)c2cccc(C)c21` [Compound 056, 2-[4-[2-(dimethylamino)ethoxy]anilino]-8-((1s,3s)-3-hydroxy-3-methyl-cyclobutyl)-6-(5-methyl-4-prop-2-enoyl-2,3-dihydroquinoxalin-1-yl)pyrido[2,3-d]pyrimidin-7-one]: the GI50 in test [1] and in test [2] was at most 0.25 µM each time.
Turning to `C=CC(=O)N1CCN(c2cc3cnc(Nc4ccc(OCCN(C)C)cc4)nc3n([C@H]3C[C@H](O)C3)c2=O)c2cccc(C)c21` [Compound 044], the GI50 in test [1] and in test [2] was at most 0.25 µM in each case.
In the case of `C=CC(=O)N1CCN(c2cc3cnc(Nc4ccc(OCCN(C)C)cc4)nc3n(C3COC3)c2=O)c2cccc(C)c21` [Compound 060, 2-[4-[2-(dimethylamino)ethoxy]anilino]-6-(5-methyl-4-prop-2-enoyl-2,3-dihydroquinoxalin-1-yl)-8-(oxetan-3-yl)pyrido[2,3-d]pyrimidin-7-one], the GI50 in test [1] fell in the range of 0.5 to 2.5 µM; in test [2], 0.25 to 0.5 µM.
Regarding `C=CC(=O)N1CC2CCN(c3cc4cnc(Nc5ccc(N6CCN(C)CC6)cc5)nc4n(C)c3=O)C[C@@H]2C1` (stereo partly shown) [Compound 023, 8-methyl-2-[4-(4-methylpiperazin-1-yl)anilino]-6-(2-prop-2-enoyl-3,3a,4,6,7,7a-hexahydro-1H-pyrrolo[3,4-c]pyridin-5-yl)pyrido[2,3-d]pyrimidin-7-one], the GI50 in test [1] and in test [2] was at least 2.5 µM throughout.
As to `C=C(F)C(=O)NC1CCCN(c2cc3cnc(Nc4cnn(CCO)c4)nc3n(C)c2=O)C1` (stereo not shown) [Compound 016, 2-fluoro-N-[1-[2-[[1-(2-hydroxyethyl)pyrazol-4-yl]amino]-8-methyl-7-oxo-pyrido[2,3-d]pyrimidin-6-yl]-3-piperidyl]prop-2-enamide], the GI50 in test [1] and in test [2] was at least 2.5 µM throughout.
